Experimental data reported in US12617780B2, “Benzothiophene, thienopyridine and thienopyrimidine derivatives for the modulation of sting” (CTXT PTY LTD, priority 2019, dated 2026).
pEC50, pKd: −log10 of the molar value.

Assays:
[1] = target: T1, human HAQ isoform of STING (Homo sapiens, UniProt Q86WV6, G230A/H232R/R293Q/R71H); assay: THP-1 STING Lucia ISG reporter cell line assay; type: cell-based; details: 24 h incubation, QUANTI-Luc luminescence; normalised to 40 μM ML RR-S2 CDA; read-out: EC50 THP-1 STING Lucia ISG cells
T1 construct: host or cells: THP-1 STING Lucia ISG cells
T1 sequence (Q86WV6 whole entry R71H/G230A/H232R/R293Q, canonical isoform): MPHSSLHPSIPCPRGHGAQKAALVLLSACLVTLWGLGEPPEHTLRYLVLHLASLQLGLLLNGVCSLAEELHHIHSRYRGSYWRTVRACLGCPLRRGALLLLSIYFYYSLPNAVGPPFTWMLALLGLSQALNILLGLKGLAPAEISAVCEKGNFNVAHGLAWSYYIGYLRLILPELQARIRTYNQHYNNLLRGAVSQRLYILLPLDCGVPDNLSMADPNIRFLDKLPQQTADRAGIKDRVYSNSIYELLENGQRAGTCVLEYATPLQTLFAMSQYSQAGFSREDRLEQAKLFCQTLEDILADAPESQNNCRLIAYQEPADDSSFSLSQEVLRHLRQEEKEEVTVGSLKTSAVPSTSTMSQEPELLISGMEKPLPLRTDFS
Description: (§1) THP-1 STING Lucia ISG cells (InvivoGen #thpl-isg) were cultured in RPMI-1640 containing 2 mM L-glutamine, 25 mM HEPES, 100 μg/mL Normocin (InvivoGen) and 10% heat-inactivated FBS. Cells were seeded at a density of 7×10^5 cells/mL, maintained at 37° C./5% CO2, and passaged every 3-4 days. Selection pressure was maintained by the addition of 100 μg/mL Zeocin every second passage.
(§2) Assay conditions: cells were harvested and resuspended at a concentration of 5×10^5 cells/mL in fresh growth media. Of this cell preparation 20 μL per well was dispensed into 384 well cell culture plates (Greiner, #781098X) and incubated at 37° C./5% CO2 for 2 hours.
(§3) Concentration Response Curves (commonly 11 doses) were prepared by 2.5 fold serial dilution starting from 10 mM compound stock solution in DMSO. Compound dilutions were transferred into the cell culture plates using a pintool (0.1 μL transfer), control wells were matched for DMSO. Positive control wells received ML RR-S2 CDA (Med Chem Express HY12885B) in 5 μL of media to a final concentration of 40 μM. All other wells received additional 5 μL of media only to equalise volume. The plates were incubated for 24 h at 37° C./5% CO2.
(§4) For the detection step, QUANTI-Luc (InvivoGen #rep-qlc1) was prepared according to manufacturer's instruction and 10 μL were added per well to the culture plates. Plates were shaken for ten seconds on an orbital shaker and left in the dark at room temperature for two minutes, before luminescence was read on a Perkin Elmer Envision plate reader.
(§5) Data analysis: Luminescence raw data was normalised % activity relative to the signal of the positive control wells and negative control wells which were not treated with compound. The following formula was used to calculate normalised % activity from raw signals: % activity=(sample−negative)/(positive−negative)
(§6) The THP-1 STING Lucia ISG cell EC50 provides an assessment of activity at the human HAQ isoform of STING. For assessing compound activity against the WT human STING isoform, an equivalent method was conducted where the cells used were THP-1-Dual KI-hSTING-R232 (InvivoGen #thpd-r232).

WT human STING isoform = target: T2, WT human STING isoform (Homo sapiens, UniProt Q86WV6, H232R); assay: THP-1-Dual KI-hSTING-R232 reporter cell line assay; type: cell-based; details: 24 h incubation, QUANTI-Luc luminescence; normalised to 40 μM ML RR-S2 CDA; read-out: EC50 THP-1 Dual KI-hSTING-R232 cells
T2 construct: host or cells: THP-1-Dual KI-hSTING-R232
T2 sequence (Q86WV6 whole entry H232R, canonical isoform): as the sequence (Q86WV6 whole entry R71H/G230A/H232R/R293Q, canonical isoform) above, with H71R, A230G, Q293R counted along it
Description: as §1, §2, §3, §4, §5, §6

huSTING (HAQ) = target: T3, huSTING (HAQ) (Homo sapiens, UniProt Q86WV6, G230A/H232R/R293Q); assay: Surface Plasmon Resonance (SPR) STING (HAQ); type: binding; details: biotinylated STING on streptavidin chip, 8° C.; 50% occupancy as surrogate KD
T3 construct: made in house; host or cells: E. coli BL21 DE3
T3 sequence (Q86WV6 with tags, fused parts or gaps G230A/H232R/R293Q): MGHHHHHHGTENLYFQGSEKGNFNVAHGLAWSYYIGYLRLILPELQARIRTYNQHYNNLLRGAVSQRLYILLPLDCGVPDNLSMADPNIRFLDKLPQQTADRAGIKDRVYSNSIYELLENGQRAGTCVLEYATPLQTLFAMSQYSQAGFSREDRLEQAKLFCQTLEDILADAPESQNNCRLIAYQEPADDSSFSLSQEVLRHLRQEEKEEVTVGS
Text: (§7) To determine binding affinities (50% occupancy as a surrogate Ko for the two binding events occurring) from dose-response experiments, binding responses at equilibrium were fit to a Hill equation, where the Hill coefficient was floated (52). For single-cycle kinetic experiments, sensorgrams were fit to a two-step kinetic model in which two analyte molecules bind sequentially (Biacore T200 or S200 Evaluation Software).

huSTING (WT) = target: T4, huSTING (WT) (Homo sapiens, UniProt Q86WV6, H232R); assay: Surface Plasmon Resonance (SPR) STING (WT); type: binding; details: biotinylated STING on streptavidin chip, 8° C.; 50% occupancy as surrogate KD
T4 construct: made in house; host or cells: E. coli BL21 DE3
T4 sequence (Q86WV6 with tags, fused parts or gaps H232R): as the sequence (Q86WV6 with tags, fused parts or gaps G230A/H232R/R293Q) above, with A100G, Q163R counted along it
Text: as §7

Row | pEC50 [1] | pEC50 (WT human STING isoform) | pKd (huSTING (HAQ)) | pKd (huSTING (WT)) | SMILES
1 | 5.08 | 4.70 | – | – | CCOC(=O)c1sc2cccc(Cl)c2c1-c1nc2cc(C(N)=O)ccc2n1C (single isomer, unassigned) [Example 5.1, Ethyl 3-(5-Carbamoyl-1-methyl-1H-benzo[d]imidazol-2-yl)-4-chlorobenzo[b]thiophene-2-carboxylate]
2 | 5.60 | 4.53 | – | – | CCOC(=O)c1sc2cccc(Cl)c2c1-c1nc2ccc(C(N)=O)cc2n1C (single isomer, unassigned) [Example 5.2, Ethyl 3-(6-carbamoyl-1-methyl-1H-benzo[d]imidazol-2-yl)-4-chlorobenzo[b]thiophene-2-carboxylate]
3 | 6.24 | 5.15 | – | – | CCOC(=O)c1sc2cccc(Cl)c2c1-c1nc2cc(C(N)=O)ccc2[nH]1 [Example 1, Ethyl 3-(5-carbamoyl-1H-benzo[d]imidazol-2-yl)-4-chlorobenzo[b]thiophene-2-carboxylate]
4 | 4.62 | < 4.40 | 4.38 | – | NC(=O)c1ccc2[nH]c(-c3c(C(=O)O)sc4cccc(Cl)c34)nc2c1 [Example 2, 3-(5-Carbamoyl-1H-benzo[d]imidazol-2-yl)-4-chlorobenzo[b]thiophene-2-carboxylic acid]
5 | 6.34 | 5.59 | – | – | CCOC(=O)c1sc2cccc(Cl)c2c1-c1nc2cc(C(N)=O)cc(F)c2[nH]1 [Example 3, Ethyl 3-(5-carbamoyl-7-fluoro-1H-benzo[d]imidazol-2-yl)-4-chlorobenzo[b]thiophene-2-carboxylate]
6 | 8.39 | 7.24 | – | – | CCOC(=O)c1sc2cccc(Cl)c2c1-c1nc2ccc(C(N)=O)c(OC)c2[nH]1 [Example 4, Ethyl 3-(6-carbamoyl-7-methoxy-1H-benzo[d]imidazol-2-yl)-4-chlorobenzo[b]thiophene-2-carboxylate]
7 | 6.36 | 5.67 | – | – | CCOC(=O)c1sc2c(F)ccc(Br)c2c1-c1nc2cc(C(N)=O)ccc2[nH]1 [Example 7, Ethyl 4-bromo-3-(5-carbamoyl-1H-benzo[d]imidazol-2-yl)-7-fluorobenzo[b]thiophene-2-carboxylate]
8 | 4.74 | 4.79 | 5.17 | 4.04 | NC(=O)c1ccc2[nH]c(-c3c(C(=O)O)sc4c(F)ccc(Br)c34)nc2c1 [Example 8, 4-Bromo-3-(5-carbamoyl-1H-benzo[d]imidazol-2-yl)-7-fluorobenzo[b]thiophene-2-carboxylic acid]
9 | 5.61 | 5.33 | 5.51 | 4.29 | COc1c(C(N)=O)ccc2nc(-c3c(C(=O)O)sc4cccc(Cl)c34)[nH]c12 [Example 9, 3-(6-Carbamoyl-7-methoxy-1H-benzo[d]imidazol-2-yl)-4-chlorobenzo[b]thiophene-2-carboxylic acid]
10 | 7.37 | 6.92 | – | – | CCOC(=O)c1sc2c(F)ccc(Br)c2c1-c1nc2ccc(C(N)=O)c(OC)c2[nH]1 [Example 10, Ethyl 4-bromo-3-(6-carbamoyl-7-methoxy-1H-benzo[d]imidazol-2-yl)-7-fluorobenzo[b]thiophene-2-carboxylate]
11 | 6.19 | 5.98 | 6.85 | 5.84 | COc1c(C(N)=O)ccc2nc(-c3c(C(=O)O)sc4c(F)ccc(Br)c34)[nH]c12 [Example 11, 4-Bromo-3-(6-carbamoyl-7-methoxy-1H-benzo[d]imidazol-2-yl)-7-fluorobenzo[b]thiophene-2-carboxylic acid]
12 | 7.92 | 7.62 | – | – | CCOC(=O)c1sc2cccc(Cl)c2c1-c1nc2c(Cl)c(C(N)=O)ccc2[nH]1 [Example 12, Ethyl 3-(5-carbamoyl-4-chloro-1H-benzo[d]imidazol-2-yl)-4-chlorobenzo[b]thiophene-2-carboxylate]
13 | 5.21 | 5.36 | 4.48 | – | NC(=O)c1ccc2[nH]c(-c3c(C(=O)O)sc4cccc(Cl)c34)nc2c1Cl [Example 13, 3-(5-Carbamoyl-4-chloro-1H-benzo[d]imidazol-2-yl)-4-chlorobenzo[b]thiophene-2-carboxylic acid]
14 | 6.24 | 5.57 | – | – | CCOC(=O)c1sc2c(F)ccc(Br)c2c1-c1nc2ccc(C(N)=O)c(OCC)c2[nH]1 [Example 14, Ethyl 4-bromo-3-(6-carbamoyl-7-ethoxy-1H-benzo[d]imidazol-2-yl)-7-fluorobenzo[b]thiophene-2-carboxylate]
15 | < 4.40 | < 4.40 | 4.25 | – | CCOc1c(C(N)=O)ccc2nc(-c3c(C(=O)O)sc4c(F)ccc(Br)c34)[nH]c12 [Example 15, 4-Bromo-3-(6-carbamoyl-7-ethoxy-1H-benzo[d]imidazol-2-yl)-7-fluorobenzo[b]thiophene-2-carboxylic acid]
16 | 5.81 | 5.56 | – | – | CCOC(=O)c1sc2c(Br)cnc(OC)c2c1-c1nc2c(OC)c(C(N)=O)ccc2[nH]1 [Example 16, Ethyl 7-bromo-3-(5-carbamoyl-4-methoxy-1H-benzo[d]imidazol-2-yl)-4-methoxythieno[3,2-c]pyridine-2-carboxylate]
17 | < 4.40 | < 4.40 | 5.44 | 4.72 | COc1c(C(N)=O)ccc2[nH]c(-c3c(C(=O)O)sc4c(Br)cnc(OC)c34)nc12 [Example 17, 7-Bromo-3-(5-carbamoyl-4-methoxy-1H-benzo[d]imidazol-2-yl)-4-methoxythieno[3,2-c]pyridine-2-carboxylic acid]
18 | 5.74 | 5.64 | – | – | CCOC(=O)c1sc2c(F)ccc(Cl)c2c1-c1nc2c(OC)c(C(N)=O)cc(Cl)c2[nH]1 [Example 18, Ethyl 3-(5-carbamoyl-7-chloro-4-methoxy-1H-benzo[d]imidazol-2-yl)-4-chloro-7-fluorobenzo[b]thiophene-2-carboxylate]
19 | 7.55 | 7.09 | – | – | CCOC(=O)c1sc2cccc(OC)c2c1-c1nc2c(OC)c(C(N)=O)ccc2[nH]1 [Example 19, Ethyl 3-(5-carbamoyl-4-methoxy-1H-benzo[d]imidazol-2-yl)-4-methoxybenzo[b]thiophene-2-carboxylate]
20 | 6.91 | 6.88 | – | – | CCOC(=O)c1sc2c(F)ccc(Cl)c2c1-c1nc2c(OC)c(C(N)=O)ccc2[nH]1 [Example 20, Ethyl 3-(5-carbamoyl-4-methoxy-1H-benzo[d]imidazol-2-yl)-4-chloro-7-fluorobenzo[b]thiophene-2-carboxylate]
21 | 5.44 | 5.31 | – | – | COc1c(C(N)=O)cc(F)c2[nH]c(-c3c(C(=O)O)sc4c(F)ccc(Cl)c34)nc12 [Example 21, 3-(5-Carbamoyl-7-fluoro-4-methoxy-1H-benzo[d]imidazol-2-yl)-4-chloro-7-fluorobenzo[b]thiophene-2-carboxylic acid]
22 | 5.03 | 5.04 | – | – | COc1c(C(N)=O)ccc2[nH]c(-c3c(C(=O)O)sc4cccc(OC)c34)nc12 [Example 22, 3-(5-Carbamoyl-4-methoxy-1H-benzo[d]imidazol-2-yl)-4-methoxybenzo[b]thiophene-2-carboxylic acid]
23 | 6.94 | 6.92 | – | – | CCOC(=O)c1sc2c(F)ccc(Cl)c2c1-c1nc2c(OC)c(C(N)=O)cc(F)c2[nH]1 [Example 23, Ethyl 3-(5-carbamoyl-7-fluoro-4-methoxy-1H-benzo[d]imidazol-2-yl)-4-chloro-7-fluorobenzo[b]thiophene-2-carboxylate]
